Assay type in all cases: cell-based
Series [1] in a line: Cytotoxicity determination in HepG2.2.15 cells (CCK-8). The settings on record: human, 6 days treatment, CCK-8, highest concentration 100 uM. An excerpt:
(§1) Example 2: Anti-Viral Assay in HepG2.2.15 Cells
(§2) 1.1. Cell line • HepG2.2.15 (the HepG2.2.15 cell line can be produced by transfection of the HepG2 cell line as described in Sells, Chen, and Acs 1987 (Proc. Natl. Acad. Sci. USA 84:1005-1009), and the HepG2 cell line is available from ATCC® under number HB-8065™).
(§3) Seed the cell HepG2.2.15 cells into 96-well plate in 2% FBS culture medium at the density of 40,000 cells/well and 5,000 cells/well for HBV inhibitory activity and cytotoxicity determination, respectively. After seeding, incubate the cell plates at 37° C., 5% CO2 overnight. The next day, medium containing compounds is added to the cell to treat the cells for 6 days with medium refreshed once in the middle of the treatment. 8 dose points with 3 folds dilution of each compound were adopted and the highest concentration of the compounds is 10 uM and 100 uM for HBV inhibitory activity and cytotoxicity determination, respectively.
(§4) After 6 days of compounds treatment, add 20 μl CCK-8 reagents to each well of cytotoxicity assay plates, incubate the plate at 37° C., 5% CO2 for 2.5 h and measure the absorbance at 450 nm wavelength, at the same time read the absorbance at 630 nm wavelength as reference.
(§5) 2.2. DATA Analysis EC50 and CC50 values are calculated by the GRAPHPAD PRISM software.

For the next series, the system named is HBV. The series is described as follows: Anti-viral assay in HepG2.2.15 cells: HBV inhibitory activity (HBV DNA in culture medium by q-PCR). The following applies: Hepatitis B virus, HepG2.2.15, 144 h.
Source text: as §1, §2, §3
The HBV DAN change in the cell culture medium induced by the compounds is measured by q-PCR method. Briefly, the HBV DNA in the culture medium is extracted using QIAamp 96 DNA Blood Kit according to the manual and then quantified by q-PCR using the primers and probe in the table below.
as §5

Another series deals with HepG2.2.15 cells. The series is described as follows: Cytotoxicity determination in HepG2.2.15 cells (CCK-8). The following applies: 6 days treatment, CCK-8, highest concentration 100 uM.
Source text: as §1, §2, §3, §4, §5

The mark [2] stands for this setting: HepG2.2.15 cells, 6 days treatment, HBV DNA in culture medium by q-PCR, highest concentration 10 uM, read-out: EC50.

Consider six compounds from US20220348571A1, “DIHYDROPYRIMIDINE DERIVATIVES AND USES THEREOF IN THE TREATMENT OF HBV INFECTION OR OF HBV-INDUCED DISEASES” (Janssen Sciences Ireland Unlimited Company, priority 2018, published 2022).

Where a name gives a salt, the structure may show the parent alone. Read-outs that look alike come from different tables or passages of the source.

`COC(=O)C1=C(C2CCN(c3ncc(C)c(C(=O)O)n3)CC2)NC(c2nccs2)=NC1c1cccc(F)c1C` (single isomer, unassigned) [II-5-B]: the CC50 (in general, the concentration giving 50% cytotoxicity) at 6 days in series [1] came to 25800 nM. Further, the EC50 (commonly the concentration at which the effect is half-maximal) with HBV (setting [2]) was 49 nM.

`CCOC(=O)C1=C(C2CCN(c3ncc(C(=O)O)c(OC)n3)CC2)NC(c2nccs2)=NC1c1ccc(F)c(F)c1Cl` (single isomer, unassigned) [II-72-B, 2-(4-(6-(2-Chloro-3,4-difluorophenyl)-5-(ethoxycarbonyl)-2-(thiazol-2-yl)-3,6-dihydropyrimidin-4-yl)piperidin-1-yl)-4-methoxypyrimidine-5-carboxylic acid]: in series [1], the CC50 at 6 days was determined as 5590 nM. In the series on HBV (setting [2]), the EC50 is 62 nM. In series [1], `CCOC(=O)Cc1coc([C@H]2CC[C@H](C3=C(C(=O)OCC)C(c4ccc(F)c(F)c4Cl)N=C(c4nccs4)N3)CC2)n1` (single isomer, unassigned) [VII-23-Y, (trans)-Ethyl 4-(2-chloro-3,4-difluorophenyl)-(4-(4-(2-ethoxy-2-oxoethyl)oxazol-2-yl)cyclohexyl)-2-(thiazol-2-yl)-1,4-dihydropyrimidine-5-carboxylate] displayed a CC50 at 6 days of 8180 nM. For `CCOC(=O)C1=C([C@H]2CC[C@@H](n3nccc3C(=O)O)CC2)NC(c2nccs2)=NC1c1ccc(F)c(F)c1Cl` (single isomer, unassigned) [Compound I-39-B, (cis)-1-(4-(6-(2-Chloro-3,4-difluorophenyl)-5-(ethoxycarbonyl)-2-(thiazol-2-yl)-3,6-dihydropyrimidin-4-yl)cyclohexyl)-1H-pyrazole-5-carboxylic acid], the EC50 in the series on HBV (setting [2]) stood at 82 nM.

Compound `CCOC(=O)C1=C(C2CCN(c3cnc(C(=O)O)s3)CC2)NC(c2nccs2)=NC1c1ccc(F)c(F)c1Cl` (single isomer, unassigned) [II-76-B, 5-(4-(6-(2-Chloro-3,4-difluorophenyl)-5-(ethoxycarbonyl)-2-(thiazol-2-yl)-3,6-dihydropyrimidin-4-yl)piperidin-1-yl)thiazole-2-carboxylate lithium salt] yielded a CC50 in the series with HepG2.2.15 cells of 6680 nM. Also, the response with HBV was half-maximal at 90 nM (EC50). Regarding `CCOC(=O)C1=C(C2CCN(c3nc(C)c(C(=O)O)o3)CC2)NC(c2nccs2)=NC1c1ccc(F)c(F)c1Cl` (single isomer, unassigned) [II-64-B, Lithium 2-(4-(6-(2-chloro-3,4-difluorophenyl)-5-(ethoxycarbonyl)-2-(thiazol-2-yl)-3,6-dihydropyrimidin-4-yl)piperidin-1-yl)-4-methyloxazole-5-carboxylate], in the series on HepG2.2.15 cells, the CC50 was 6840 nM. Besides, a half-maximal response in the series with HBV (EC50) required 75 nM.
